Legend:
[1] = target: T1, human CYP11B1 (Homo sapiens, UniProt P15538); test: Inhibition of hCYP11B1 in transfected V79 cells; format: cell-based; details: hamster V79 cells expressing human CYP11B1; substrate 11-deoxycortisol 200 nM
T1 construct: expressed in transfected cells
T1 sequence (P15538 25-503): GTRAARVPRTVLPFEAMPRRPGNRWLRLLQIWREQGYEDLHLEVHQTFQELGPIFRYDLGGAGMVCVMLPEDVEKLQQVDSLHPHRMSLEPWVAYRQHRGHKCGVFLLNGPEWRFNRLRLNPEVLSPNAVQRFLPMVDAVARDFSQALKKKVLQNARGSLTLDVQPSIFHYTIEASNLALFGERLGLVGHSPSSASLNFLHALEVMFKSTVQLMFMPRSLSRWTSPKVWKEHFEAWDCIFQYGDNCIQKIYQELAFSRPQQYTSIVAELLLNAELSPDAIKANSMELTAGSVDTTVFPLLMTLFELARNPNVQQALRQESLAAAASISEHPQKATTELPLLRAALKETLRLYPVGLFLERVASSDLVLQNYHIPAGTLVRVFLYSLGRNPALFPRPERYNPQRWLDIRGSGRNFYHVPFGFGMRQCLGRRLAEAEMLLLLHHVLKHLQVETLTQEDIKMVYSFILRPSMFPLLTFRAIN
In short: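 Reactions started with 200 nM 11-deoxycortisol, ran for 30 min and were stopped with ethyl acetate, after a 2 h compound preincubation. The host was stably transfected V79 hamster cells carrying human CYP11B1 plus rat P450 reductase. Percent inhibition, from LC-MS/MS or HPLC (260 nm) quantitation of substrate and product, gave the IC50.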

[2] = target: T2, human CYP11B2 (Homo sapiens, UniProt P19099); test: Inhibition of hCYP11B2 in transfected V79 cells; format: cell-based; details: hamster V79 cells expressing human CYP11B2; substrate 11-deoxycorticosterone 200 nM
T2 construct: expressed in transfected cells
T2 sequence (P19099 25-503): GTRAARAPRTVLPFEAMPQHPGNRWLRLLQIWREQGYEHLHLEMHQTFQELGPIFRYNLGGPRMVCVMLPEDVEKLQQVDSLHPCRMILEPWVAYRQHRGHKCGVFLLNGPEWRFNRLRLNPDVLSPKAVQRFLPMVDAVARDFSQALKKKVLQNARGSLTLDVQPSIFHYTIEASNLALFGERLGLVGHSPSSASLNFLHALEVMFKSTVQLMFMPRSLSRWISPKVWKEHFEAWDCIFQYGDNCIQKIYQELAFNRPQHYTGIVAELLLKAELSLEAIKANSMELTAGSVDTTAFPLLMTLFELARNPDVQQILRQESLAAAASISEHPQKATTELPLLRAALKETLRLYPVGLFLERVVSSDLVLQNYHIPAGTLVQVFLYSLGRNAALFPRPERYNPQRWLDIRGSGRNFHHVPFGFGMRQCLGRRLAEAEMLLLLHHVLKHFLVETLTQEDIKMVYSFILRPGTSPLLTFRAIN
In short: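 The substrate (200 nM, 30 min) was added after a 2 hour compound pre-incubation in lentivirus-transduced V79 cells stably expressing human CYP11B2 plus rat NADPH-P450 reductase.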

SMILES	IC50 [1] [nM]	IC50 [2] [nM]
N#Cc1ccc(-c2cncc3c2SCCN3S(=O)(=O)c2cccs2)cc1 [S24, 4-(4-(Thiophen-2-ylsulfonyl)-3,4-dihydro-2H-pyrido[4,3-b][1,4]thiazin-8-yl)benzonitrile]	1.1	0.13
N#Cc1ccc(-c2cncc3c2SCCN3S(=O)(=O)c2cccnc2)cc1 [S25, 4-(4-(Pyridin-3-ylsulfonyl)-3,4-dihydro-2H-pyrido[4,3-b][1,4]thiazin-8-yl)benzonitrile]	1.82	0.04
N#Cc1ccc(-c2cncc3c2SCCN3S(=O)(=O)c2cccc3cccnc23)cc1 [S26, 4-(4-(Quinolin-8-ylsulfonyl)-3,4-dihydro-2H-pyrido[4,3-b][1,4]thiazin-8-yl)benzonitrile]	28	0.86
COc1ccc(S(=O)(=O)N2CCSc3c(-c4cccc(C#N)c4)cncc32)cc1 [S27, 3-(4-((4-Methoxyphenyl)sulfonyl)-3,4-dihydro-2H-pyrido[4,3-b][1,4]thiazin-8-yl)benzonitrile]	2.9	0.7
COc1ccc(S(=O)(=O)N2CCSc3c(-c4ccc(Cl)cc4)cncc32)cc1 [S28, 8-(4-Chlorophenyl)-4-((4-methoxyphenyl)sulfonyl)-3,4-dihydro-2H-pyrido[4,3-b][1,4]thia zine]	1.8	0.2
COc1ccc(S(=O)(=O)N2CCSc3c(-c4cccc(Cl)c4)cncc32)cc1 [S29, 8-(3-Chlorophenyl)-4-((4-methoxyphenyl)sulfonyl)-3,4-dihydro-2H-pyrido[4,3-b][1,4]thia zine]	7.3	1.5
COc1ccc(S(=O)(=O)N2CCSc3c(-c4ccc(F)cc4)cncc32)cc1 [S30, 8-(4-Fluorophenyl)-4-((4-methoxyphenyl)sulfonyl)-3,4-dihydro-2H-pyrido[4,3-b][1,4]thia zine]	19	1
COc1ccc(S(=O)(=O)N2CCSc3c(-c4cccc(F)c4)cncc32)cc1 [S31, 8-(3-Fluorophenyl)-4-((4-methoxyphenyl)sulfonyl)-3,4-dihydro-2H-pyrido[4,3-b][1,4]thia zine]	136	5.9
COc1ccc(S(=O)(=O)N2CCSc3c(-c4ccc(C(F)(F)F)cc4)cncc32)cc1 [S32, 4-((4-methoxyphenyl)sulfonyl)-8-(4-(trifluoromethyl)phenyl)-3,4-dihydro-2H-pyrido[4,3-b][1,4]thiazine]	468	10.3
COc1ccc(S(=O)(=O)N2CCSc3c(-c4ccc(F)c(C)c4)cncc32)cc1 [S33, 8-(4-Fluoro-3-methylphenyl)-4-((4-methoxyphenyl)sulfonyl)-3,4-dihydro-2H-pyrido[4,3-b][1,4]thiazine]	5.4	0.09
COc1ccc(S(=O)(=O)N2CCSc3c(-c4ccc(F)c(Cl)c4)cncc32)cc1 [S34, 8-(3-chloro-4-fluorophenyl)-4-((4-methoxyphenyl)sulfonyl)-3,4-dihydro-2H-pyrido[4,3-b][1,4]thiazine]	13.4	0.17
COc1ccc(S(=O)(=O)N2CCSc3c(-c4ccc(C#N)c(F)c4)cncc32)cc1 [S35, 2-Fluoro-4-(4-((4-methoxyphenyl)sulfonyl)-3,4-dihydro-2H-pyrido[4,3-b][1,4]thiazin-8-yl) benzonitrile]	0.35	0.12
COc1ccc(S(=O)(=O)N2CCSc3c(-c4ccsc4)cncc32)cc1 [S36, 4-((4-Methoxyphenyl)sulfonyl)-8-(thiophen-3-yl)-3,4-dihydro-2H-pyrido[4,3-b][1,4]thiazine]	30.4	5.6
COc1ccc(S(=O)(=O)N2CCSc3c(-c4cccs4)cncc32)cc1 [S37, 4-((4-Methoxyphenyl)sulfonyl)-8-(thiophen-2-yl)-3,4-dihydro-2H-pyrido[4,3-b][1,4]thiazine]	84	6
COc1ccc(S(=O)(=O)N2CCSc3c(-c4ccco4)cncc32)cc1 [S38, 8-(Furan-2-yl)-4-((4-methoxyphenyl)sulfonyl)-3,4-dihydro-2H-pyrido[4,3-b][1,4]thiazine]	0.7	2.1

Now from value to compound:

IC50 [1] [nM]	IC50 [2] [nM]	SMILES
137	264	COc1ccc(S(=O)(=O)N2CCSc3c(-c4cn[nH]c4)cncc32)cc1 [S39, 4-((4-Methoxyphenyl)sulfonyl)-8-(1H-pyrazol-4-yl)-3,4-dihydro-2H-pyrido[4,3-b][1,4]thia zine]
657	6.7	N#Cc1ccc(S(=O)(=O)N2CCSc3c(-c4cc5ccccc5o4)cncc32)cc1 [S40, 4-((8-(Benzofuran-2-yl)-2,3-dihydro-4H-pyrido[4,3-b][1,4]thiazin-4-yl)sulfonyl)benzonitrile]
99	0.4	N#Cc1ccc(S(=O)(=O)N2CCSc3c(-c4cc5cc(Cl)ccc5o4)cncc32)cc1 [S41, 4-((8-(5-Chlorobenzofuran-2-yl)-2,3-dihydro-4H-pyrido[4,3-b][1,4]thiazin-4-yl)sulfonyl) benzonitrile]
24	0.3	N#Cc1ccc(S(=O)(=O)N2CCSc3c(-c4cc5cc(C#N)ccc5o4)cncc32)cc1 [S42, 2-(4-((4-Cyanophenyl)sulfonyl)-3,4-dihydro-2H-pyrido[4,3-b][1,4]thiazin-8-yl)benzofuran-5-carbonitrile]
621	6.5	N#Cc1ccc(S(=O)(=O)N2CCSc3c(-c4cc5ccccc5s4)cncc32)cc1 [S43, 4-((8-(Benzo[b]thiophen-2-yl)-2,3-dihydro-4H-pyrido[4,3-b][1,4]thiazin-4-yl)sulfonyl)benzonitrile]
782	46	N#Cc1ccc(S(=O)(=O)N2CCSc3c(-c4ccc5occc5c4)cncc32)cc1 [S44, 4-((8-(Benzofuran-5-yl)-2,3-dihydro-4H-pyrido[4,3-b][1,4]thiazin-4-yl)sulfonyl)benzonitrile]
1460	11.6	Cn1ncc2ccc(-c3cncc4c3SCCN4S(=O)(=O)c3ccc(C#N)cc3)cc21 [S45, 4-((8-(1-Methyl-1H-indazol-6-yl)-2,3-dihydro-4H-pyrido[4,3-b][1,4]thiazin-4-yl)sulfonyl) benzonitrile]
322	2.8	N#Cc1ccc(S(=O)(=O)N2CCSc3c(-c4ccc5ncsc5c4)cncc32)cc1 [S46, 4-((8-(Benzo[d]thiazol-6-yl)-2,3-dihydro-4H-pyrido[4,3-b][1,4]thiazin-4-yl)sulfonyl)benzonitrile]
14	25	N#Cc1ccc(S(=O)(=O)N2CCSc3c(-c4ccc5[nH]ncc5c4)cncc32)cc1 [S48, 4-((8-(1H-Indazol-5-yl)-2,3-dihydro-4H-pyrido[4,3-b][1,4]thiazin-4-yl)sulfonyl)benzonitrile]
7	27	N#Cc1ccc(S(=O)(=O)N2CCSc3c(-c4ccc5nc[nH]c5c4)cncc32)cc1 [S49, 4-((8-(1H-Benzo[d]imidazol-6-yl)-2,3-dihydro-4H-pyrido[4,3-b][1,4]thiazin-4-yl)sulfonyl)benzonitrile]
298	52	N#Cc1ccc(S(=O)(=O)N2CCSc3c(-c4ccn5ccnc5c4)cncc32)cc1 [S50, 4-((8-(Imidazo[1,2-a]pyridin-7-yl)-2,3-dihydro-4H-pyrido[4,3-b][1,4]thiazin-4-yl)sulfonyl)benzonitrile]
1970	10.3	N#Cc1ccc(S(=O)(=O)N2CCSc3c(-c4ccc5c(c4)CC(=O)N5)cncc32)cc1 [S51, 4-((8-(2-Oxoindolin-5-yl)-2,3-dihydro-4H-pyrido[4,3-b][1,4]thiazin-4-yl)sulfonyl)benzonitrile]
697	32	CN1C(=O)CCc2cc(-c3cncc4c3SCCN4S(=O)(=O)c3ccc(C#N)cc3)cc(F)c21 [S52, 4-((8-(8-Fluoro-1-methyl-2-oxo-1,2,3,4-tetrahydroquinolin-6-yl)-2,3-dihydro-4H-pyrido[4,3-b][1,4]thiazin-4-yl)sulfonyl)benzonitrile]
72	0.9	COc1ccc(S(=O)(=O)N2CCSc3c(-c4cc5cc(Cl)ccc5o4)cncc32)cn1 [S53, 8-(5-Chlorobenzofuran-2-yl)-4-((6-methoxypyridin-3-yl)sulfonyl)-3,4-dihydro-2H-pyrido[4,3-b][1,4]thiazine]

— patent publication US20260092074A1, “Annelated Pyridines as Steroidogenesis Inhibitors, Preparation Method and Use Thereof” (Guangzhou Vinnocent Pharmaceutical Limited, priority 2022, published 2026)
